Test results from patent US5824771A, “Cyclic CRF agonists” (The Salk Institute for Biological Studies, priority 1997, dated 1998).
Bridge positions count the residues as written; N and C are the ends. Square brackets hold non-standard residues; d marks the D form. Peptide text beside a SMILES is read from it. Nle = CCCC[C@H](N)C(=O)O

Legend:
[1] = Relief of inflammation on administration; format: in vivo; settings: administration of the peptide
[2] = test system: rat anterior pituitary cells; experiment: In vitro stimulation of ACTH and β-endorphin secretion by cultured rat pituitary cells, potency compared with oCRF (Standard) or r/hCRF; format: cell-based; settings: for in vitro potency to stimulate secretion of ACTH relative to the Standard: relative to the laboratory Standard (synthetic oCRF), cultured rat pituitary cells, limits in parentheses; for in vitro biopotency, comparison in words: compared with the Standard or with a named analog
Method: (§1) The cyclic CRF agonists are examined for their effects on the secretion of ACTH and β-endorphin in vitro and also in vivo. […] In vivo testing is carried out using the general procedure set forth in C. Rivier et al., Science, 218, 377 (1982).

[3] = test system: ACTH and β-END-LI secretion; experiment: Secretion of ACTH and β-END-LI on administration of the peptide (in vivo testing)
Method: as §1

[4] = Lowering of blood pressure on peripheral or iv administration; format: in vivo; settings: iv injection / administered intravenously

## CCCC[C@H](NC(=O)[C@H](CCC(=O)O)NC(=O)[C@@H](NC(=O)[C@H](CCCC)NC(=O)[C@H](CC(N)=O)NC(=O)[C@H](CCCNC(=N)N)NC(=O)[C@H](CC(C)C)NC(=O)[C@H](CC(C)C)NC(=O)[C@H](Cc1c[nH]cn1)NC(=O)[C@@H](Cc1ccccc1)NC(=O)[C@@H](NC(=O)[C@H](CC(C)C)NC(=O)[C@H](CC(=O)O)NC(=O)[C@@H](NC(=O)[C@H](CO)NC(=O)[C@@H](NC(=O)[C@H]1CCCN1C(=O)[C@@H]1CCCN1C(C)=O)[C@@H](C)CC)[C@@H](C)CC)[C@@H](C)O)[C@@H](C)CC)C(=O)N[C@@H](C)C(=O)N[C@@H](CCCNC(=N)N)C(=O)N[C@@H](CC(N)=O)C(=O)N[C@@H](CCC(=O)O)C(=O)N[C@@H](CC(N)=O)C(=O)N[C@@H](CCC(N)=O)C(=O)N[C@@H](CCCNC(=N)N)C(=O)N[C@@H](CCC(=O)O)C(=O)N[C@H]1CCC(=O)NCCCC[C@@H](C(=O)N[C@@H](CC(N)=O)C(=O)N[C@@H](CCCNC(=N)N)C(=O)N[C@@H](CCCCN)C(=O)N[C@@H](Cc2ccc(O)cc2)C(=O)N[C@@H](CC(C)C)C(=O)N[C@@H](CC(=O)O)C(=O)N[C@@H](CCC(=O)O)C(=O)N[C@H](C(N)=O)C(C)C)NC(=O)[C@@H](Cc2c[nH]cn2)NC(=O)[C@H](C)NC1=O [Example 8 A, (cyclo 30-33)[Ac-Pro^4, D-Pro^5, D-Phe^12, Nle^18,21, Glu^30, D-His^32, Lys^33]-Carp Urotensin I(4-41)] (Ac-P[dP]ISIDLT[dF]HLLRN[Nle]IE[Nle]ARNENQREEA[dH]KNRKYLDEV-NH2; lactam 27-30)
[1]
  relief of inflammation, in words: relieves inflammation

## (cyclo 30-33)[Ac-Agl(Me,Ac)^7, D-Phe^12, Nle^21,38, Glu^30, Lys^33 ]-r/hCRF(7-41) [Example 19 G]
[2]
  in vitro potency to stimulate secretion of ACTH relative to the Standard: about 3.4 times
[3]
  stimulation of secretion of ACTH and β-END-LI on administration of the peptide, in words: stimulates the secretion of ACTH and β-END-LI

## (cyclo 30-33)[Ac-D/L-Agl(Me,For)^7, D-Phe^12, Nle^21,38, Glu^30, Lys^33 ]-r/hCRF(7-41) [Example 19 D]
[2]
  in vitro biopotency, comparison in words: less potent than the Standard
[3]
  stimulation of secretion of ACTH and β-END-LI on administration of the peptide, in words: stimulates the secretion of ACTH and β-END-LI

## (cyclo 30-33)[Ac-D/L-Agl^7, D-Phe^12, Nle^21,38, Glu^30, Lys^33 ]-r/hCRF(7-41) [Example 19]
[3]
  stimulation of secretion of ACTH and β-END-LI on administration of the peptide, in words: stimulates the secretion of ACTH and β-END-LI

## (cyclo 30-33)[Ac-D/L-MeAgl^7, D-Phe^12, Nle^21,38, Glu^30, Lys^33 ]-r/hCRF(7-41) [Example 19 B]
[2]
  in vitro biopotency, comparison in words: less potent than the Standard
[3]
  stimulation of secretion of ACTH and β-END-LI on administration of the peptide, in words: stimulate the secretion of ACTH and β-END-LI

## (cyclo 30-33)[Ac-MeAgl(For)^7, D-Phe^12, Nle^21,38, Glu^30, Lys^33 ]-r/hCRF(7-41) [Example 19 E]
[3]
  stimulation of secretion of ACTH and β-END-LI on administration of the peptide, in words: stimulates the secretion of ACTH and β-END-LI

## (cyclo 30-33)[Ac-Pro^4, D-Phe^12, CML^14, Nle^21,38, Glu^30, D-His^32, Lys^33 ]-r/hCRF(4-41) [Example 9 A]
[3]
  stimulation of secretion of ACTH and β-END-LI on administration of the peptide, in words: stimulates the secretion of ACTH and β-END-LI
[4]
  lowering of blood pressure on iv injection, in words: lowers blood pressure

## (cyclo 30-33)[Ac-Pro^4, D-Phe^12, CML^15, Nle^21,38, Glu^30, D-His^32, Lys^33 ]-r/hCRF(4-41) [Example 9]
[3]
  stimulation of secretion of ACTH and β-END-LI on administration of the peptide, in words: stimulates the secretion of ACTH and β-END-LI
[4]
  lowering of blood pressure on iv injection, in words: lowers blood pressure

## (cyclo 30-33)[Ac-Pro^4, D-Phe^12, CML^17, Nle^21,38, Glu^30, D-His^32, Lys^33 ]-r/hCRF (4-41) [Example 9 E]
[3]
  stimulation of secretion of ACTH and β-END-LI on administration of the peptide, in words: stimulates the secretion of ACTH and β-END-LI
[4]
  lowering of blood pressure on iv injection, in words: lowers blood pressure

## (cyclo 30-33)[Ac-Pro^4, D-Phe^12, CML^19, Nle^21,38, Glu^30, D-His^32, Lys^33 ]-r/hCRF (4-41) [Example 9 B]
[3]
  stimulation of secretion of ACTH and β-END-LI on administration of the peptide, in words: stimulates the secretion of ACTH and β-END-LI
[4]
  lowering of blood pressure on iv injection, in words: lowers blood pressure

## (cyclo 30-33)[Ac-Pro^4, D-Phe^12, Nle^21,38, CML^27, Glu^30, D-His^32, Lys^33 ]-r/hCRF(4-41) [Example 9 C]
[3]
  stimulation of secretion of ACTH and β-END-LI on administration of the peptide, in words: stimulates the secretion of ACTH and β-END-LI
[4]
  lowering of blood pressure on iv injection, in words: lowers blood pressure

## (cyclo 30-33)[Ac-Pro^4, D-Phe^12, Nle^21,38, Glu^30, D-His^32, Lys^33, CML^37 ]-r/hCRF(4-41) [Example 9 D]
[3]
  stimulation of secretion of ACTH and β-END-LI on administration of the peptide, in words: stimulates the secretion of ACTH and β-END-LI
[4]
  lowering of blood pressure on iv injection, in words: lowers blood pressure

## (cyclo 30-33)[Ac-Pro^4, D-Pro^5, D-Phe^12, Nle^21,38, CML^27, Glu^30, D-His^32, Lys^33 ]-r/hCRF(4-41) [Example 9 C D-Pro^5 analog]
[2]
  in vitro potency to stimulate secretion of ACTH relative to the Standard: about 7 times
[3]
  stimulation of secretion of ACTH and β-END-LI on administration of the peptide, in words: stimulates the secretion of ACTH and β-END-LI

## (cyclo 30-33)[Ac-Pro^4,D-Phe^12, Nle^21,38, Glu^30, D-Amp^32, Lys^33 ]-r/hCRF(4-41) [Example 6 D]
[3]
  stimulation of secretion of ACTH and β-END-LI on administration of the peptide, in words: stimulates the secretion of ACTH and β-END-LI
[4]
  lowering of blood pressure on iv injection, in words: lowers blood pressure

## (cyclo 30-33)[Ac-Ser(OMe)^7, D-Phe^12, Nle^21,38, Glu^30, Lys^33 ]-r/hCRF(7-41) [Example 19 I]
[3]
  stimulation of secretion of ACTH and β-END-LI on administration of the peptide, in words: stimulates the secretion of ACTH and β-END-LI

## (cyclo 30-33)[Ac-Ser^7, D-Phe^12, CML^18,27, Nle^21,38, Glu^30, Lys^33 ]-r/hCRF(7-41) [Example 20 C]
[3]
  stimulation of secretion of ACTH and β-END-LI on administration of the peptide, in words: stimulates the secretion of ACTH and β-END-LI
[4]
  lowering of blood pressure on iv injection, in words: lowers blood pressure
